According to US9328138B2 (priority 2011, dated 2016):
Structures can show the parent of a compound that is named as a salt.

Key:
[1] = molecular target: T1, HCV genotype 1b (BK) NS3 modified enzyme with a R155K mutation (Hepatitis C virus genotype 1b, UniProt P26663, R1181K); experiment: HCV NS3 protease time-resolved fluorescence (TRF) assay, genotype 1b R155K; type: biochemical; details: Ki 1b R155K
T1 construct: HCV genotype 1b (BK) NS3 modified enzyme
Method in brief: (§1)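 Pre-incubation of NS3/NS4A protease with inhibitor for 10 min in pH 7.5 HEPES buffer with 10 mM DTT; 25 nM TRF peptide substrate, hydrolysis 6 h at room temperature. Fluorescence read at ex 340/em 615 nm with 400 μs delay, enzyme level set for S/B 5-20; IC50 by four-parameter fit.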

[2] = molecular target: HCV NS3 protease genotype 3a (3A-1) (Hepatitis C virus genotype 3a, UniProt Q81258); experiment: HCV NS3 protease time-resolved fluorescence (TRF) assay, genotype 3a; type: biochemical; details: Ki 3a
Method in brief: as §1

[3] = genotype 1b (BK) NS3 R155K, single value
[4] = first of two values printed in the cell (not explained)
[5] = second of two values printed in the cell (not explained)

CN1CCN(CCCOc2c3c(nc4ccccc24)O[C@@H]2C[C@H]4C(=O)N[C@]5(C(=O)NS(=O)(=O)C6(C)CC6)C[C@H]5/C=C\CCCCC[C@H](NC(=O)O[C@@H]5C[C@H]5CCC/C=C/3)C(=O)N4C2)CC1 [Example 304, (1aR,5S,11Z,12aS,13aR,16S,19R,27E, 31aR)-N-[(1-methylcyclopropyl)sulfonyl]-26-[3-(4-methylpiperazin-1-yl)propoxy]-3,15,33-trioxo-1,1a,3,4,5,6,7,8,9,10,12a,13,15,16,18, 19,29,30,31,31a-icosahydro-5,17:16,19-dimethanodicyclopropa[12,13:28,29] [1,20,3,14,17] dioxatriazacyclononacosino[21,22-b]quinoline-13a(14H)-carboxamide]
Ki [1, 3]: 0.078 nM
Ki [2]: 1.2 nM

C=C[C@@H]1C[C@]1(NC(=O)[C@@H]1C[C@@H]2CN1C(=O)[C@H](C(C)(C)C)NC(=O)O[C@@H]1C[C@H]1CCCCCc1c(nc3ccccc3c1OC1CC3CCC(C1)N3)O2)C(=O)NS(=O)(=O)C1(C)CC1 (single isomer, unassigned) [Example 274]
Ki [1, 4]: 0.015 nM
Ki [1, 5]: 0.015 nM
Ki [2]: 0.094 nM

C=C[C@@H]1C[C@]1(NC(=O)[C@@H]1C[C@@H]2CN1C(=O)[C@H](C(C)(C)C)NC(=O)O[C@@H]1C[C@H]1CCCCCc1c(nc3c(OC)cccc3c1OCCCn1ccnc1)O2)C(=O)NS(=O)(=O)C1(C)CC1 [Example 144, (1aR,5S,8S,10R,22aR)-5-tert-butyl-N-[(1R,2S)-2-ethenyl-1-{[(1-methylcyclopropyl)sulfonyl]carbamoyl}cyclopropyl]-17-[3-(1H-imidazol-1-yl)propoxy]-13-methoxy-3,6-dioxo-1,1a,3,4,5,6,9,10,18,19,20,21,22,22a-tetradecahydro-8H-7,10-methanocyclopropa[18,19][1,10,3,6]dioxadiazacyclononadecino[11,12-b]quinoline-8-carboxamide]
Ki [1, 3]: 0.61 nM
Ki [2]: 6.2 nM

C=C[C@@H]1C[C@]1(NC(=O)[C@@H]1C[C@@H]2CN1C(=O)[C@H](C1CCCC1)NC(=O)O[C@@H]1CCC[C@H]1CC/C=C/Cc1c(nc3ccccc3c1OCC)O2)C(=O)NS(=O)(=O)C1CC1 [Example 1, (3aR,7S,10S,12R,21E,24aS)-7-cyclopentyl-N-{(1R,2S)-1-[(cyclopropylsulfonyl)carbamoyl]-2-ethenylcyclopropyl}-19-ethoxy-5,8-dioxo-1,2,3,3a,5,6,7,8,11,12,20,23,24,24a-tetradecahydro-10H-9,12-methanocyclopenta[18,19][1,10,3,6]dioxadiazacyclononadecino[11,12-b]quinoline-10-carboxamide]
Ki [1, 3]: 0.25 nM
Ki [2]: 6.1 nM

CC1(S(=O)(=O)NC(=O)[C@@]23C[C@H]2/C=C\CCCCC[C@@H]2NC(=O)O[C@@H]4C[C@H]4CCC/C=C/c4c(nc5ccccc5c4OCCCN4CCOCC4)O[C@@H]4C[C@@H](C(=O)N3)N(C4)C2=O)CC1 [Example 298, (1aR,5S,11Z,12aS,13aR,16S,19R,27E, 31aR)-N-[(1-methylcyclopropyl)sulfonyl]-26-[3-(morpholin-4-yl)propoxy]-3,15,33-trioxo-1,1a,3,4,5,6,7,8,9,10,12a,13,15,16,18,19,29, 30,31,31a-icosahydro-5,17:16,19-dimethanodicyclopropa[12,13:28,29][1,20,3,14,17]dioxatriazacyclononacosino[21,22-b]quinoline-13a(14H)-carboxamide]
Ki [1, 3]: 0.49 nM
Ki [2]: 4 nM

C=C[C@@H]1C[C@]1(NC(=O)[C@@H]1C[C@@H]2CN1C(=O)[C@H](C(C)(C)C)NC(=O)O[C@H]1C[C@@H]1CCCCCc1c(nc3ccncc3c1OC1CCN(C)CC1)O2)C(=O)NS(=O)(=O)C1(C)CC1 [Example 295, (1aS,5S,8S,10R,22aS)-5-tert-butyl-N-{(1R,2S)-2-ethenyl-1-[(1-methylcyclopropanesulfonamido)carbonyl]cyclopropyl}-17-[(1-methylpiperidin-4-yl)oxy]-3,6-dioxo-1,1a,3,4,5,6,9,10,18,19,20,21,22,22a-tetradecahydro-8H-7,10-methanocyclopropa[18,19][1,10,3,6]dioxadiazacyclononadecino[11,12-b][1,6]naphthyridine-8-carboxamide]
Ki [1, 3]: 0.082 nM
Ki [2]: 1.07 nM

C=C[C@@H]1C[C@]1(NC(=O)[C@@H]1C[C@@H]2CN1C(=O)[C@H](C(C)(C)C)NC(=O)O[C@@H]1C[C@H]1CCCCCc1c(nc3ccccc3c1OCCCN(C)CC1CCC(=O)N1)O2)C(=O)NS(=O)(=O)C1(C)CC1 (stereo partly drawn) [Example 195, (1aR,5S,8S,10R,22aR)-5-tert-butyl-N-[(1R,2S)-2-ethenyl-1-{[(1-methylcyclopropyl)sulfonyl]carbamoyl}cyclopropyl]-17-(3-{methyl[(5-oxopyrrolidin-2-yl)methyl]amino}propoxy)-3,6-dioxo-1,1a,3,4,5,6,9,10,18, 19,20,21,22,22a-tetradecahydro-8H-7,10-methanocyclopropa[18,19][1,10,3,6] dioxadiazacyclononadecino[11,12-b] quinoline-8-carboxamide]
Ki [1, 3]: 0.049 nM
Ki [2]: 0.66 nM

C=C[C@@H]1C[C@]1(NC(=O)[C@@H]1C[C@@H]2CN1C(=O)[C@H](C(C)(C)C)NC(=O)O[C@@H]1C[C@H]1CCCCCc1c(nc3ccccc3c1OCCCN1CCOCC1)O2)C(=O)NS(=O)(=O)C1(C)CC1 [Example 116, (1aR,5S,8S,10R,22aR)-5-tert-butyl-N-[(1R,2S)-2-ethenyl-1-{[(1-methylcyclopropyl)sulfonyl]carbamoyl}cyclopropyl]-17-[3-(morpholin-4-yl)propoxy]-3,6-dioxo-1,1a,3,4,5,6,9,10,18,19,20,21, 22,22a-tetradeca hydro-8H-7,10-methanocyclopropa [18,19][1,10,3,6]dioxadiazacyclo nonadecino[11,12-b]quinoline-8-carboxamide]
Ki [1, 3]: 0.17 nM
Ki [2]: 1.6 nM

C=C[C@@H]1C[C@]1(NC(=O)[C@@H]1C[C@@H]2CN1C(=O)[C@H](C(C)(C)C)NC(=O)O[C@@H]1C[C@H]1CCCCCc1c(nc3ccccc3c1OCCCNC1CCOCC1)O2)C(=O)NS(=O)(=O)C1(C)CC1 [Example 181, (1aR,5S,8S,10R,22aR)-5-tert-butyl-N-[(1R,2S)-2-ethenyl-1-{[(1-methylcyclopropyl)sulfonyl]carbamoyl}cyclopropyl]-3,6-dioxo-17-[3-(tetrahydro-2H-pyran-4-ylamino)propoxy]-1,1a,3,4,5,6,9,10,18, 19,20,21,22,22a-tetradecahydro-8H-7,10-methanocyclopropa[18,19][1,10,3,6] dioxadiazacyclononadecino[11,12-b] quinoline-8-carboxamide]
Ki [1, 3]: 0.065 nM
Ki [2]: 0.78 nM

C=C[C@@H]1C[C@]1(NC(=O)[C@@H]1C[C@@H]2CN1C(=O)[C@H](C1CCCCC1)NC(=O)O[C@@H]1C[C@H]1CCCCCc1c(nc3ccccc3c1OC1CCN(CC(F)(F)F)CC1)O2)C(=O)NS(=O)(=O)C1(C)CC1 [Example 236, 4-{[(1aR,5S,8S,10R,22aR)-5-cyclohexyl-8-{[(1R,2S)-2-ethenyl-1-{[(1-methylcyclopropyl)sulfonyl]carbamoyl}cyclopropyl]carbamoyl}-3,6-dioxo-1,1a,3,4,5,6,9,10,18,19,20,21,22,22a-tetradecahydro-8H-7,10-methanocyclopropa[18,19][1,10,3,6]dioxadiazacyclononadecino[11,12-b]quinolin-17-yl]oxy}-1-(2,2,2-trifluoroethyl)piperidinium formate]
Ki [1, 4]: 0.33 nM
Ki [1, 5]: 5.44 nM
Ki [2]: 110 nM

C=C[C@@H]1C[C@]1(NC(=O)[C@@H]1C[C@@H]2CN1C(=O)[C@H](C(C)(C)C)NC(=O)O[C@@H]1C[C@H]1CCCCCc1c(nc3ccccc3c1OCCCNCCc1cccc3ccccc13)O2)C(=O)NS(=O)(=O)C1(C)CC1 [Example 189, (1aR,5S,8S,10R,22aR)-5-tert-butyl-N-[(1R,2S)-2-ethenyl-1-{[(1-methylcyclopropyl)sulfonyl]carbamoyl}cyclopropyl]-17-(3-{[2-(naphthalen-1-yl)ethyl]amino}propoxy)-3,6-dioxo-1,1a,3,4,5,6,9,10,18,19,20, 21,22,22a-tetradecahydro-8H-7,10-methanocyclopropa[18,19][1,10,3,6] dioxadiazacyclononadecino[11,12-b] quinoline-8-carboxamide]
Ki [1, 3]: 0.081 nM
Ki [2]: 3.4 nM

C=C[C@@H]1C[C@]1(NC(=O)[C@@H]1C[C@@H]2CN1C(=O)[C@H](C(C)(C)C)NC(=O)O[C@@H]1C[C@H]1CCCCCc1c(nc3ccccc3c1OCCN1CCCCC1)O2)C(=O)NS(=O)(=O)C1(C)CC1 [Example 134, (1aR,5S,8S,10R,22aR)-5-tert-butyl-N-[(1R,2S)-2-ethenyl-1-{[(1-methylcyclopropyl)sulfonyl]carbamoyl}cyclopropyl]-3,6-dioxo-17-[2-(piperidin-1-yl)ethoxy]-1,1a,3,4,5,6,9,10,18,19,20,21,22,22a-tetradeca hydro-8H-7,10-methano cyclopropa[18,19][1,10,3,6]dioxadiazacyclo nonadecino[11,12-b]quinoline-8-carboxamide]
Ki [1, 3]: 0.56 nM
Ki [2]: 6.1 nM

C=C[C@@H]1C[C@]1(NC(=O)[C@@H]1C[C@@H]2CN1C(=O)[C@H](C(C)(C)C)NC(=O)O[C@@H]1C[C@H]1CCCCCc1c(nc3ccccc3c1OC)O2)C(=O)NS(=O)(=O)C1(C)CC1 [Example 119]
Ki [1, 3]: 0.12 nM
Ki [2]: 3.2 nM

C=C[C@@H]1C[C@]1(NC(=O)[C@@H]1C[C@@H]2CN1C(=O)[C@H](C1CCCC1)NC(=O)O[C@@H]1CCC[C@H]1CC/C=C/Cc1c(nc3ccccc3c1OC(C)=O)O2)C(=O)NS(=O)(=O)C1CC1 [Example 39, (3aR,7S,10S,12R,21E,24aS)-7-cyclopentyl-10-({(1R,2S)-1-[(cyclopropylsulfonyl)carbamoyl]-2-ethenylcyclopropyl}carbamoyl)-5,8-dioxo-1,2,3,3a,5,6,7,8,11,12,20,23,24,24a-tetradecahydro-10H-9,12-methanocyclopenta[18,19][1,10,3,6]dioxadiazacyclononadecino[11,12-b]quinolin-19-yl acetate]
Ki [1, 3]: 0.13 nM
Ki [2]: 3.5 nM
